Data from patent publication US20240116893A1, “Compounds for Disease Treatment” (Duke University, priority 2021, published 2024).
Entries after “also recorded” stand apart in the source; their conditions may differ. Read-outs that look alike come from different tables or passages of the source. Blank lines part the entries; values can stand above or below the molecule they belong to.

Assays:
[1] = Bioavailability of compound 1 (takinib); conditions: in vivo
IRAK4 = IRAK4 (Homo sapiens (Human), UniProt Q9NWZ3); test: IRAK4 kinase inhibition IC50 (TABLE 1; FIG. 1B selectivity screening); format: biochemical; conditions: for Ratio IC50 (IRAK4)/IC50 (TAK1): selectivity for TAK1 over IRAK4
IRAK4, sequence (Q9NWZ3 whole entry): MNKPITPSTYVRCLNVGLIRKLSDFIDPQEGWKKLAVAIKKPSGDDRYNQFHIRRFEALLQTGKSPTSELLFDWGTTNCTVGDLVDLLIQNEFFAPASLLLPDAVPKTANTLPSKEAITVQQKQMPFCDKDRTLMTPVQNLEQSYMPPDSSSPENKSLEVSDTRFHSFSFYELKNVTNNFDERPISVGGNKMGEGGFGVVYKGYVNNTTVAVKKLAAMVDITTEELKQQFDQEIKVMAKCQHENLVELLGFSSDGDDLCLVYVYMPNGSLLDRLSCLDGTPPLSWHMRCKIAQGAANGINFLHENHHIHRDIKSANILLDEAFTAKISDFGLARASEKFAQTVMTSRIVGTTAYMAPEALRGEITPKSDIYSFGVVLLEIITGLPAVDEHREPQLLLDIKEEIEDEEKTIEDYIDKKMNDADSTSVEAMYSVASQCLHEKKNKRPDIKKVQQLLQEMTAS

TAK1 [2] = molecular target: T1, TAK1 (Homo sapiens (Human), UniProt O43318); test: TAK1 kinase inhibition IC50 (TABLE 1; FIG. 1B selectivity screening); format: biochemical
Target sequence in this assay (O43318 31-303): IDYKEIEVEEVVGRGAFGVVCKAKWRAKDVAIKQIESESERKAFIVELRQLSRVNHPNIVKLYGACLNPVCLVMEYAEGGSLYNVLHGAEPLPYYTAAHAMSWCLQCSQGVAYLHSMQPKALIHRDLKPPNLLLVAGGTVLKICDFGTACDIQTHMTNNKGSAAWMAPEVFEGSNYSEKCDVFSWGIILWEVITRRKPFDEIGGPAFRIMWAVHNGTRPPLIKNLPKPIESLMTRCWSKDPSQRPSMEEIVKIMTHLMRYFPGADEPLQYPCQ
Target sequence in this assay (Q15750 468-497 partner): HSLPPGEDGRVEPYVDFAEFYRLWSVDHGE

[3] = test system: Collagen Type II Induced Arthritis (CIA); test: CIA mouse model of inflammatory arthritis; format: in vivo, DBA/1 mice; conditions: for reduction of clinical arthritis score: QD, FIG. 5A; for reduction in disease clinical score (AUC): FIG. 5B
THP-1 human macrophages = test: Cytokine expression in THP-1 macrophages stimulated with LPS and IFNγ; format: cell-based; conditions: for attenuation (reduction) of TNF expression: 10 μM, LPS and IFNγ, FIG. 1C
Method: THP-1 cells were treated with 100 nM phorbol 12-myristate 13-acetate (PMA) for 72 hours in RPMI 1640X media. Cells were rested in PMA free media 24 hours prior to treatments. LPS (10 ng/mL) was used for pro-inflammatory stimulation.
THP-1 cells were treated with 10 μM of designated drug or vehicle (DMSO) and 24 hours after treatment, supernatant was added to Human Cytokine XL proteome array (R&D Systems) in accordance with manufacturer protocol. Chemiluminescence was used to visualize protein quantities.
To evaluate the anti-inflammatory effects of compounds 3, 5, and 6, THP-1 human macrophages were stimulated with LPS and IFNγ in the presence of TAK1 inhibitor (10 μM) or vehicle.

[4] = Pharmacokinetics after oral gavage in rats (plasma and urine, LC-MS); format: in vivo, Sprague Dawley rats
Method: All serum/drug samples were frozen and stored at −80° C., unless otherwise specified. […] This internal standard solution was used for tissue homogenization. LC-MS analysis was performed at the Duke Proteomics and Metabolomics Core Facility.

Water solubility = format: physicochemical
[5] = test system: Enbrel® refractory arthritis; test: Enbrel refractory CIA rheumatoid arthritis mouse model; format: in vivo, mice; conditions: twice daily PO after etanercept days 21-30; n=6; FIG. 4E
From the text: To that end, a recently developed pre-clinical model of Enbrel® refractory arthritis was utilized, in which mice develop neutralizing antibodies towards Enbrel® causing disease relapse mirroring patient populations. Using this model, mice (n=6) were initially treated with Enbrel® on days 21-30 until loss of efficacy (determined by an arthritic score of 1.5) around study days 29 to 31 showing the development of neutralizing antibodies and disease progression. At this point, a first treatment group was switched to once daily vehicle (DMSO, PO) from day 30 to day 36, and a second treatment group was switched to twice daily compound 5 (PO).

[6] = Maximum tolerated dose / 14-day oral toxicology study; format: in vivo; conditions: 5, 30, 50 and 100 mg/kg PO once daily, 14 days
Method: Maximum tolerated dose studies and toxicology of compound 5 further established the safety and tolerance of this compound. Here, mice were treated daily with compound 5 (PO) at 5, 30, 50 and 100 mg/kg dosing for […] consecutive days. Daily body weights were taken as well as clinical observations.
Next, and as further described in EXAMPLE 9, a 14-day toxicology study of orally administered compound 5 in CD-1 mice (n=4) was conducted, using daily oral doses of 5, 30, 50 and 100 mg/kg of compound 5. In this study, the change in body weight from baseline as well as the weight of various organs were measured.

MAP4K5 [7] = molecular target: T2, MAP4K5 (Homo sapiens (Human), UniProt Q9Y4K4); test: Dose-response of top 10 kinases (FIG. 1A); format: biochemical; conditions: read-out: half maximal inhibitory concentration (IC50) MAP4K5
T2 sequence (Q9Y4K4 whole entry): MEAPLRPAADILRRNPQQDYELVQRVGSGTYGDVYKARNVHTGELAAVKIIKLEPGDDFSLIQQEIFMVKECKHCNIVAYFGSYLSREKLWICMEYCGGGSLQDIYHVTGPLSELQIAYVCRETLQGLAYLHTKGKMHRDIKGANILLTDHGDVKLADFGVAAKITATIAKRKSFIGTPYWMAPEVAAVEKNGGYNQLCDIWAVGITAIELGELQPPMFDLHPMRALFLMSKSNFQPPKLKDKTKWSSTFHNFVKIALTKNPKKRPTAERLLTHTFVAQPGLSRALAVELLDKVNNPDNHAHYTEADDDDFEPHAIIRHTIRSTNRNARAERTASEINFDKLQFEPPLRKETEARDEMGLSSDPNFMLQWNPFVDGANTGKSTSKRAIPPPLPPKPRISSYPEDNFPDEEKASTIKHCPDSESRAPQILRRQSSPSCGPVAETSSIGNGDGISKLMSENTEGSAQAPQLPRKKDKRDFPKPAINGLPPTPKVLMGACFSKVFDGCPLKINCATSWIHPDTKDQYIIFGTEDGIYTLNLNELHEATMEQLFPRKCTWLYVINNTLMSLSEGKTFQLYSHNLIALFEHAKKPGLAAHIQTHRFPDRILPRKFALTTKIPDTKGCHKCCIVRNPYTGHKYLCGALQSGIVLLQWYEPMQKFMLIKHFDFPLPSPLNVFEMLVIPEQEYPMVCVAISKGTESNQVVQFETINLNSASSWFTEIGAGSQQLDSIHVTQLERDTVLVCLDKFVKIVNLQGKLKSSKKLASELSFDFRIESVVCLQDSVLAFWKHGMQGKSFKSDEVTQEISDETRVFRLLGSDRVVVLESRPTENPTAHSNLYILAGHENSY
Method: (§1) Next, dose-response experiments of the top 10 kinases inhibited by compound 5 in the initial kinome screen were conducted as described in EXAMPLE 5. […] The top 10 kinases were selected in an initial kinome screen.

ULK2 [8] = molecular target: T3, ULK2 (Homo sapiens (Human), UniProt Q8IYT8); test: Dose-response of top 10 kinases (FIG. 1A); format: biochemical; conditions: read-out: half maximal inhibitory concentration (IC50) ULK2
T3 sequence (Q8IYT8 whole entry): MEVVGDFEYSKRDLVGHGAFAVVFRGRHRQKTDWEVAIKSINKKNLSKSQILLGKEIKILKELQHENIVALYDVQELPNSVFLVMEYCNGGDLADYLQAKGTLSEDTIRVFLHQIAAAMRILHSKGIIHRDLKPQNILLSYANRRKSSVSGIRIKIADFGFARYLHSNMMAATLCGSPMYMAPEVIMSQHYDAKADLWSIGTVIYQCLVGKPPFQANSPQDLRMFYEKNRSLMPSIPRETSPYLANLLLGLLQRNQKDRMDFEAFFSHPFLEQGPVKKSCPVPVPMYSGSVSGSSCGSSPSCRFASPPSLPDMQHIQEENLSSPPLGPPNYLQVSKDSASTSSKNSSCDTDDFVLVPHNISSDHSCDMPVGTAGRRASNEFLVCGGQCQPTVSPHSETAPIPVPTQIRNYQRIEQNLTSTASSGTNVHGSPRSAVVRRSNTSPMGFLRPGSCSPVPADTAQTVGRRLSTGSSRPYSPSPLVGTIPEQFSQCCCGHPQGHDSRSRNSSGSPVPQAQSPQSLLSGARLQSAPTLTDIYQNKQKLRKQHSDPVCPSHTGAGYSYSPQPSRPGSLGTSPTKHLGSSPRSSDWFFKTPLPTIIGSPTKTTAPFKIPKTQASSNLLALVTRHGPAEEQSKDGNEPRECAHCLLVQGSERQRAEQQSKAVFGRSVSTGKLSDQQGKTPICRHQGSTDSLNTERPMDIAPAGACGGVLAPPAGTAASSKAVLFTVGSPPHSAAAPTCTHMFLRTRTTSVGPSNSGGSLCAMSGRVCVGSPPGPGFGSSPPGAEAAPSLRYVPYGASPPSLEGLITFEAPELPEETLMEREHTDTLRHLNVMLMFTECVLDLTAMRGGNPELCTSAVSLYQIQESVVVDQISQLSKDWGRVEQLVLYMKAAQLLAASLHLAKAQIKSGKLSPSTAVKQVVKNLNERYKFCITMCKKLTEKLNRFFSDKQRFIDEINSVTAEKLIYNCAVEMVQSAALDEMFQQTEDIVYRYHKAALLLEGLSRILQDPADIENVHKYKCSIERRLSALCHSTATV
Method: as §1

MLK1 = MLK1 (Homo sapiens (Human), UniProt P80192); test: Dose-response of top 10 kinases (FIG. 1A); format: biochemical; conditions: read-out: half maximal inhibitory concentration (IC50) MLK1
Method: as §1

IRAK1 [9] = molecular target: T4, IRAK1 (Homo sapiens (Human), UniProt P51617); test: Dose-response of top 10 kinases (FIG. 1A); format: biochemical; conditions: read-out: half maximal inhibitory concentration (IC50) IRAK1
T4 sequence (P51617 whole entry): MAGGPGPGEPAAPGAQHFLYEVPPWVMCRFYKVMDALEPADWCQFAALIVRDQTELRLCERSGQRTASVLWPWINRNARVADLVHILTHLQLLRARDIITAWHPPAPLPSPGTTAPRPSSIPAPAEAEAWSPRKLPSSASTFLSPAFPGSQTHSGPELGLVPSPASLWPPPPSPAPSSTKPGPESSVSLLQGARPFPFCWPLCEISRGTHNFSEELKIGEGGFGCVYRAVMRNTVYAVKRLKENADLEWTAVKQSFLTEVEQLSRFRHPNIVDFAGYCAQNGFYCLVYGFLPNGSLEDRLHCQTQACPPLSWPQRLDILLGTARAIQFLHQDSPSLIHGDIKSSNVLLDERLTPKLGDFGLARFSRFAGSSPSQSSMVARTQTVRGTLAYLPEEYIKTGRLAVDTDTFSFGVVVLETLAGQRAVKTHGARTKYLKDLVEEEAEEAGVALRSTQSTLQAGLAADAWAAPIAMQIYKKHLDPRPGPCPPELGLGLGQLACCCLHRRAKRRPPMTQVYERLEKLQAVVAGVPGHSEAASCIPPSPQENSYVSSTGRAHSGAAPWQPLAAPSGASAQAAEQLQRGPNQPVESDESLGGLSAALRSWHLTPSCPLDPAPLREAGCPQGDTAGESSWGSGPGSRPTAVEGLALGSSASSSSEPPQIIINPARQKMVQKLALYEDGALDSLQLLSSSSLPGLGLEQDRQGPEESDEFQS
Method: as §1

NUAK = NUAK (Homo sapiens (Human), UniProt O60285); test: Dose-response of top 10 kinases (FIG. 1A); format: biochemical; conditions: read-out: half maximal inhibitory concentration (IC50) NUAK
NUAK, sequence (O60285 whole entry): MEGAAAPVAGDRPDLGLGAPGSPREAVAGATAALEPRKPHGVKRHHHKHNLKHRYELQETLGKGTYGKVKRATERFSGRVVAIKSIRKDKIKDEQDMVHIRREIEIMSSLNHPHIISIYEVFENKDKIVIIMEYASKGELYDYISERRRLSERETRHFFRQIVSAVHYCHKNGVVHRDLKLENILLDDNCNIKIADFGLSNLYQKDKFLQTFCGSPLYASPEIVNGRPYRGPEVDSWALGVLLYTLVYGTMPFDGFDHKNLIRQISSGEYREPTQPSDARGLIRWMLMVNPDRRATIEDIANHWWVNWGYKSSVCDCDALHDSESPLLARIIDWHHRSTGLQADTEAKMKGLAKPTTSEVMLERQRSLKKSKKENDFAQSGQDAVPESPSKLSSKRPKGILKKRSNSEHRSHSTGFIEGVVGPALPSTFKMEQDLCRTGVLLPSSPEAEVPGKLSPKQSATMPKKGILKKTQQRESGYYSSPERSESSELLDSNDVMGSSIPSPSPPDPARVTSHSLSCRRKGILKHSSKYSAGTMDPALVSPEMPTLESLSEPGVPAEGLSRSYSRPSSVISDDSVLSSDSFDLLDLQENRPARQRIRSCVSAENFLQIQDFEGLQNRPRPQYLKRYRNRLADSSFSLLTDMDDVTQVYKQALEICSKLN
Method: as §1

TAK1 [10] = molecular target: T1, TAK1; test: Dose-response of top 10 kinases (FIG. 1A); format: biochemical; conditions: read-out: half maximal inhibitory concentration (IC50) TAK1
Method: as §1
Target sequence in this assay (O43318 1-303): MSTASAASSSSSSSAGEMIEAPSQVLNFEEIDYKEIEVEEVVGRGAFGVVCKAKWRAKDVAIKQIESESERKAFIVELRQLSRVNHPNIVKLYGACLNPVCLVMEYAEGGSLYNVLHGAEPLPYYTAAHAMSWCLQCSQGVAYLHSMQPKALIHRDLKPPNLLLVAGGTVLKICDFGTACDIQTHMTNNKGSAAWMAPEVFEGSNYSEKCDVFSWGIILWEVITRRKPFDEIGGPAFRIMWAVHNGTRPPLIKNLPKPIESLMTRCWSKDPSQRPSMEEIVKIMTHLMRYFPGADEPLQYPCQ
Target sequence in this assay (Q15750 437-504 partner): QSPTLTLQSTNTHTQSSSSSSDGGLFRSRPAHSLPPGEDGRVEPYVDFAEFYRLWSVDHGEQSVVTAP

CSNK1G2 = CSNK1G2 (Homo sapiens (Human), UniProt P78368); test: Dose-response of top 10 kinases (FIG. 1A); format: biochemical; conditions: read-out: half maximal inhibitory concentration (IC50) CSNK1G2
Method: as §1

CAMKKβ-1 = CAMKKβ-1 (Homo sapiens (Human), UniProt Q96RR4); test: Dose-response of top 10 kinases (FIG. 1A); format: biochemical; conditions: read-out: half maximal inhibitory concentration (IC50) CAMKKβ-1
Method: as §1

CLK2 = CLK2 (Homo sapiens (Human), UniProt P49760); test: Dose-response of top 10 kinases (FIG. 1A); format: biochemical; conditions: read-out: half maximal inhibitory concentration (IC50) CLK2
Method: as §1

GCK = GCK (Homo sapiens (Human), UniProt Q12851); test: Dose-response of top 10 kinases (FIG. 1A); format: biochemical; conditions: read-out: half maximal inhibitory concentration (IC50) GCK
Method: as §1

NUAK1 = NUAK1 (Homo sapiens (Human), UniProt O60285); test: Kinase panel of 146 human kinases at 10 μM; format: biochemical
NUAK1, sequence (O60285 whole entry): as the sequence (O60285 whole entry) above
From the text: (§2) Kinome selectivity of compound 5 was further screened using a kinase panel of 146 human kinases representing all gene family members within the human kinome.

MAP4K5 [11] = molecular target: T2, MAP4K5; test: Kinase panel of 146 human kinases at 10 μM; format: biochemical
From the text: as §2

CK1γ2 = CK1γ2 (Homo sapiens (Human), UniProt P78368); test: Kinase panel of 146 human kinases at 10 μM; format: biochemical
CK1γ2, sequence (P78368 whole entry): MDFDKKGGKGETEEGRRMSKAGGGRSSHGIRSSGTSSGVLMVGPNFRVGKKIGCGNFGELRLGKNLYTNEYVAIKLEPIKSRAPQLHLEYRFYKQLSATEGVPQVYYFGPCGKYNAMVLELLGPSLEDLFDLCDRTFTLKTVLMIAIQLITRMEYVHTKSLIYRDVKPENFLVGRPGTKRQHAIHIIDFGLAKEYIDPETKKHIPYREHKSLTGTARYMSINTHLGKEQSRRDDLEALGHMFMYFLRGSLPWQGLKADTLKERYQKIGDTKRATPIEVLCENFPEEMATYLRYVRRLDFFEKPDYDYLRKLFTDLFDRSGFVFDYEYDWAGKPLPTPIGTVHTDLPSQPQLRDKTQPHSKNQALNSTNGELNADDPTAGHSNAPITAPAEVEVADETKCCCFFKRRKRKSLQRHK
From the text: as §2

ULK2 [12] = molecular target: T3, ULK2; test: Kinase panel of 146 human kinases at 10 μM; format: biochemical
From the text: as §2

IRAK1 [13] = molecular target: T4, IRAK1; test: Kinase panel of 146 human kinases at 10 μM; format: biochemical
From the text: as §2

TAK1 [14] = molecular target: T1, TAK1; test: Kinase panel of 146 human kinases at 10 μM; format: biochemical
From the text: as §2
Target sequence in this assay (O43318 1-303): as the sequence (O43318 1-303) above
Target sequence in this assay (Q15750 437-504 partner): as the sequence (Q15750 437-504 partner) above

[15] = 50 mg/kg IP, all joints, FIG. 3E

bioavailability [1]: low
affinity for IRAK4 less than TAK1 (IRAK4): ~12 fold
IC50 (IRAK4; read-out: IC50 (IRAK4)): 120 nM
Ratio IC50 (IRAK4)/IC50 (TAK1) (IRAK4): 13
IC50 (TAK1 [2]; read-out: IC50 (TAK1)): 9 nM
Molecule: takinib [Compound 1, reference compound]

Molecule: NC(=O)c1cccc(C(=O)/N=c2\[nH]c3ccc(CO)cc3n2[C@H]2CC[C@H](O)CC2)c1 [Compound 7]
IC50 (IRAK4): 8.2 nM
Ratio IC50 (IRAK4)/IC50 (TAK1) (IRAK4): 5
IC50 (TAK1 [2]; read-out: IC50 (TAK1)): 1.6 nM

Molecule: CCCn1/c(=N/C(=O)c2cccc(C(N)=O)c2)[nH]c2ccc(CO)cc21 [Compound 4]
IC50 (IRAK4; read-out: IC50 (IRAK4)): 48 nM
Ratio IC50 (IRAK4)/IC50 (TAK1) (IRAK4): 18
IC50 (TAK1 [2]; read-out: IC50 (TAK1)): 2.6 nM

Molecule: etanercept
reduction in clinical arthritis scores vs vehicle ([3]; 10 mg/kg, IP, once daily, FIG. 4B): 57%

Molecule: C[C@@H]1CCN(C(=O)CC#N)C[C@@H]1N(C)c1ncnc2[nH]ccc12 [tofacitinib, reference compound]
TNF secretion (THP-1 human macrophages; LPS and IFNγ challenge, FIG. 1D): minimal to no TNF reduction
reduction in clinical arthritis scores vs vehicle ([3]; 30 mg/kg, PO, twice daily (BID), FIG. 4D): 50%

Molecule: CN(Cc1cnc2nc(N)nc(N)c2n1)c1ccc(C(=O)N[C@@H](CCC(=O)O)C(=O)O)cc1 [methotrexate, reference compound]
reduction in clinical arthritis scores vs vehicle ([3]; 1 mg/kg, PO, once daily, FIG. 4C): 72%

Molecule: CCCn1/c(=N/C(=O)c2cccc(C(N)=O)c2)[nH]c2ccc(CN3CCCCC3)cc21 [Compound 5]
time of Cmax post gavage ([4]; 50 mg/kg oral gavage): 2 h
time post gavage up to which M (μM) plasma concentration was shown ([4]; 50 mg/kg oral gavage): 8 to 12 h
peak in urine concentration ([4]; 50 mg/kg oral gavage, at 12 hours): 100 µM
Cmax ([4]; male, Sprague Dawley, rat, plasma, 50 mg/kg oral gavage): 1890 nM
oral bioavailability ([4]; rat, in vivo, po): high
attenuation (reduction) of TNF expression (THP-1 human macrophages): 11 fold
IC50 (IRAK4; read-out: IC50 (IRAK4)): 2500 nM
IC50 (IRAK4; selectivity screening, FIG. 1B, read-out: IRAK4 inhibition IC50): 2510 nM
water solubility (Water solubility): good
reduction of arthritis score vs etanercept-refractory animals switched to vehicle [5]: 40%
reduction of clinical arthritis score ([3]; 10 mg/kg, PO): 18%
reduction of clinical arthritis score ([3]; 30 mg/kg, PO): 35%
reduction of AUC of clinical arthritis scores vs disease control ([3]; 50 mg/kg IP, QD days 21-26, Q2D days 27-36, FIG. 3C): 85%
disease incidence on day 36 ([3]; 50 mg/kg IP, QD days 21-26, Q2D days 27-36, n=12): 75%
reduction of bone resorption score vs vehicle [3, 15]: 87%
reduction of cartilage damage score vs vehicle [3, 15]: 76%
reduction of inflammation score vs vehicle [3, 15]: 62%
reduction of pannus score vs vehicle [3, 15]: 86%
reduction of periosteal bone formation score vs vehicle [3, 15]: 93%
reduction in clinical arthritis scores vs vehicle ([3]; 50 mg/kg, IP, once daily, FIG. 4A): 85%
reduction in disease clinical score (AUC) ([3]; IP dosing (25 mg/kg, QD)): 36%
reduction in disease clinical score (AUC) ([3]; oral dosing (PO)): 35%
IC50 (TAK1 [2]; selectivity screening, FIG. 1B, read-out: TAK1 inhibition IC50): 2.5 nM
blood chemistries or complete blood counts [6]: no significant differences
body weight change [6]: no significant weight loss
morbidity [6]: no signs of morbidity
relative organ weights (liver, heart, thymus, kidneys, brain, spleen) [6]: no significant weight loss; also recorded: did not cause any significant or dose-dependent changes; also recorded: not cause a significant or dose-dependent change
IC50 (MAP4K5 [7]): 124 nM
IC50 (ULK2 [8]): 63 nM
IC50 (MLK1): 5590 nM
IC50 (IRAK1 [9]): 264 nM
IC50 (NUAK): 270 nM
IC50 (TAK1 [10]): 8 nM
IC50 (CSNK1G2): 809 nM
IC50 (CAMKKβ-1): 1280 nM
IC50 (CLK2): 29 nM
IC50 (GCK): 33 nM
enzymatic activity of NUAK1 (NUAK1): < 15 % enzymatic activity
enzymatic activity of MAP4K5 (MAP4K5 [11]): < 15 % enzymatic activity
enzymatic activity of CK1γ2 (CK1γ2): < 15 % enzymatic activity
enzymatic activity of ULK2 (ULK2 [12]): < 15 % enzymatic activity
enzymatic activity of IRAK1 (IRAK1 [13]): < 15 % enzymatic activity
enzymatic activity of TAK1 (TAK1 [14]): < 15 % enzymatic activity

Molecule: NC(=O)c1cccc(C(=O)/N=c2\[nH]c3cc(CN4CCCCC4)ccc3n2C2CCC(O)CC2)c1 (stereo not shown) [Compound 3]
urine levels ([4]; 50 mg/kg oral gavage): M urine levels up to 24 hours post gavage
plasma levels across all timepoints ([4]; 50 mg/kg oral gavage, 1-24 hours): low nM
attenuation (reduction) of TNF expression (THP-1 human macrophages): 2.5 fold
IC50 (IRAK4; read-out: IC50 (IRAK4)): 8.5 nM
Ratio IC50 (IRAK4)/IC50 (TAK1) (IRAK4): 3
IC50 (TAK1 [2]; read-out: IC50 (TAK1)): 2.8 nM
